Laboratory results: paper PMC11758266, “Lipid-Modulated, Graduated Inhibition of N-Glycosylation Pathway Priming Suggests Wide Tolerance of ER Proteostasis to Stress” (ACS Central Science, 2024)

Columns and labels:
ATF4 = ATF4 high-content imaging assay in primary human dermal fibroblasts; assay type: cell-based; conditions: 6 h, Figures S8–S12
Protocol: A targeted panel of tunicamycin analogues was tested in the ATF4 High Content Imaging assay to assess their ER stress generating ability in a primary cell line. Normal adult human dermal fibroblasts (NHDF-Ad, Lonza) were plated in a 96-well Phenoplate (PerkinElmer) at a seeding density of 10,000 cells per well in fibroblast growth medium (containing fibroblast basal medium, 10% FBS, 0.1% insulin, 0.1% hFGF-B, 0.1% Gentamicin/Amphotericin) and incubated at 37°C, 5% CO2. Treatment with pre-diluted compounds was performed after 24 hrs with final concentrations ranging from 10 µM – 5 nM (final DMSO concentration was 0.3%). Low control (0.3% DMSO final conc.) and high control (0.3 µM tunicamycin final conc.) wells were again included for assay normalization. Treated cells were incubated for 6 hrs at 37°C, 5% CO2 before fixing (4% PFA in PBS, 20 min at room temperature followed by washing (3x) with PBS). Direct ATF4 immunofluorescence staining was then performed, whereby cells were treated with a Coralite Plus 488-conjugated ATF4 Polyclonal antibody (CL488-10835, Proteintech) in a 1:100 dilution of Perm-block buffer (10% FBS, 0.3% TritonX-100 in PBS) for 2 hrs. Nuclei staining was then performed with DRAQ5 dye (ab108410, Abcam) at 1:1000 in PBS. Plates were imaged on a Leica SP8 confocal microscope equipped with 488 nm and 633 nm excitation and images were analysed using script-based algorithms as described for HEK cells above. […]

His-tagged IgG-Fc domain = test: In cell glycoprotein inhibition assay (IgG-Fc expression, SDS-PAGE and Western blot); assay type: cell-based, human; conditions: HEK293T cells, 3 days, analogue 10 µM down to 0.5 nM (Tun-8E,2G 300 µM down to 15 nM), Figure S13
DPAGT1 [1] = target: T1, DPAGT1 (Homo sapiens, UniProt Q9H3H5); test: DPAGT1 radiometric in vitro activity assay (end point, phosphorimaging of radio-TLC); assay type: biochemical; conditions: for % Activity of DPAGT1 in the presence of a tunicamycin analogue compared to a negative control (GFB): Table S1, analogue 1 µM, DPAGT1 1 µM, dolichyl monophosphate 50 µM, UDP-GlcNAc(1-14C) 50 µM, 37 °C, 21 min, three biological replicates; for DPAGT1 inhibition (in words): inhibitor 1 µM, enzyme:inhibitor 1:1, substrates 50 µM
T1 construct: full-length DPAGT1 bearing an additional tobacco etch virus (TEV) protease-cleavable N-terminal His6 tag; His6 with TEV protease cleavage site ([…]/S leader) (N, cleaved yes); made in house; host or cells: Spodoptera frugiperda Sf9 insect cells (baculovirus, pFB-LIC-Bse vector)
T1 sequence (Q9H3H5 with tags, fused parts or gaps): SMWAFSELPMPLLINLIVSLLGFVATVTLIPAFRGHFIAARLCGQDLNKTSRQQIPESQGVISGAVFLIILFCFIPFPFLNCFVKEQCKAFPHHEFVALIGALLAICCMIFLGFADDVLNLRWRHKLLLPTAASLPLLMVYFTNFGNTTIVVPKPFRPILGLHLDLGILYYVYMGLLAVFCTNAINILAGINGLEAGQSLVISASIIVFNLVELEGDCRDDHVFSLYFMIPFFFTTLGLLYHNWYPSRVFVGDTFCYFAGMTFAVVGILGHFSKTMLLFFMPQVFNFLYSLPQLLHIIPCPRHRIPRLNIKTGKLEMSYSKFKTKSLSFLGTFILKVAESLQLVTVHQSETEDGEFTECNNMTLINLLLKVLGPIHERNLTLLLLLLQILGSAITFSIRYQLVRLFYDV
Description: Figure 2 Design, synthesis and in vitro inhibitory activity of lipid-altered tunicamycins. (A) Structure of DPAGT1 in complex with tunicamycin[21] showing key interactions primarily along TMH5 that in concert with a Trp122 “lid” create the lipid-engagement site (blue). This engagement contrasts with a small, gated pocket below bounded primarily by Leu293 in which only smaller moieties (here an acetamide) are accommodated (red). (B) Guided by this structure, as an apparent snapshot of a Michaelis complex-like mode of binding, modulation at two acyl sites in the core scaffold was explored. […] Semisynthesis allowed generation of graduated lipid tunicamycin analogues through regiochemical differentiation in carbamoylation to generate two key divergent intermediates: Tun-0E,0G and Tun-0E,2G. Subsequent differential acylations allow for generation of both symmetric and asymmetric Tun-XE,YG analogues. Reagents and conditions: (a) Ac2O, pyridine; (b) Boc2O, DMAP, THF; (c) NaOMe, MeOH; (d) 4 M HCl in dioxane, MeOH; (e) HATU, DIPEA, octanoic acid, DMF; (f) HATU, DIPEA, carboxylic acid; (g) HATU, DIPEA, 2 × carboxylic acid. (C) Residual % in vitro activity of DPAGT1 following incubation with analogues [DPAGT1 ([…]), MgCl2 (5 mM), Tun analogue ([…]), dolichol phosphate ([…]), and UDP-GlcNAc(1-^14C) ([…]) in 1% OGNG/CHS/cardiolipin] was assessed through end point assay at 37 °C via phosphorimaging. These were determined on the basis of three biological replicates, each using three technical replicates. Error bars shown are standard deviations.
The intended targeting and graduated modulation of DPAGT1’s PNPT activity was assessed in vitro using a highly pure recapitulated source. Briefly, full-length DPAGT1 bearing an additional tobacco etch virus (TEV) protease-cleavable N-terminal His6 tag was expressed using a baculovirus (DH10Bac)/insect cell (Spodoptera frugiperda Sf9) system using a pFB-LIC-Bse expression vector. DPAGT1 is an integral transmembrane enzyme, and thus, after harvesting and lysis, protein was extracted from the expression host membrane fraction using octyl glucose neopentyl glycol (OGNG) (1% w/v) and cholesterylhemisuccinate (CHS) (0.1% w/v) before isolation and purification by immobilized metal affinity chromatography (IMAC) using a Co^2+-charged (“TALON”) resin and elution with an imidazole gradient. To ensure that there were no confounding effects of the His6 tag, this was then cleaved with TEV protease followed by reverse IMAC and size exclusion chromatography in sequence.
Radiometric bisubstrate analyses allowed excellent sensitivity under the conditions necessary for proper recapitulation of the activity. Purified DPAGT1 (1 μM) was incubated with both substrates, dolichol monophosphate and radiolabeled UDP-N-acetyl-D-[1-^14C]glucosamine, at 50 μM, and the activity was determined directly by end point phosphor detection of product dolichol-PP-N-acetyl-D-[1-^14C]glucosamine formation.
MgCl2, 10 mM imidazole (pH 8.0), 200 mM NaCl , 2 mM TCEP (added fresh), 5% Glycerol, 0.18% OGNG, 0.01 8% CHS, 0.0036% cardiolipin) and the protein was eluted with WB supplemented with 250 mM imidazole (pH 8.0). The eluted protein was desalted using PD-10 columns (GE Healthcare) pre-equilibrated with gel filtration buffer (GFB: 20 mM HEPES (pH […]
cardiolipin). Desalted protein was subsequently treated with 10:1 TEV protease (w:w, protein:enzyme) overnight at 4 ° C. The TEV protease treated protein was separated from the 6-His-tagged enzymes and uncleaved DPAGT1 by incubation for 1 h with Talon resin (prepared as described above) at 4 °C for 1 h. The resin was collected in a column, the flowthrough collected and the protein sample was centrifuged at 21,500 rpm in a Beckman TA25.5 rotor for 10 min at 4 ° C. The supernatant was then concentrated to 0.5 mL using a 30 kDa cutoff PES concentrator (Corning), with mixing every 5 mins during concentration. The […]

DPAGT1 [2] = target: T2, DPAGT1 (Homo sapiens, UniProt Q9H3H5); test: Heat-induced denaturation assay of DPAGT1 with bound ligand; assay type: binding; conditions: heat-induced denaturation; DPAGT1 alone 51.7 ± 0.2 °C
T2 sequence (Q9H3H5 1-408): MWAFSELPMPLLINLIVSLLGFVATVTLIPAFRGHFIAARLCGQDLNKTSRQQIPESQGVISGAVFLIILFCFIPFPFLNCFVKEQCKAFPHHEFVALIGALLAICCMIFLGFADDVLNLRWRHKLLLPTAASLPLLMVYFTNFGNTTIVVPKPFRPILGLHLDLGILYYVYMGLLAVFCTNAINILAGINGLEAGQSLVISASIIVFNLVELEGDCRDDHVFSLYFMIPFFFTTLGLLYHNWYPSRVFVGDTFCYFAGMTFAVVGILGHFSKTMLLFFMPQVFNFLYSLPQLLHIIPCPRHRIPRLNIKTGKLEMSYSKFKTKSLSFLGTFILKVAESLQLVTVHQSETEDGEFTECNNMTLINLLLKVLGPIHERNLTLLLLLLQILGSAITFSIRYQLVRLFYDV
Description: The structure of DPAGT1 in complex with the archetypal scaffold natural product tunicamycin[21] […] Trp122 moves so as to use its indole moiety to hydrophobically provide a binding “cap” or “lid” over the proximal portion of the 10′-N lipid chain.

Compound	increase in ATF4 (in words) (ATF4)	glycosylation state of expressed IgG-Fc (in words) (His-tagged IgG-Fc domain)	% Activity of DPAGT1 in the presence of a tunicamycin analogue compared to a negative control (GFB) (DPAGT1 [1])	DPAGT1 inhibition (in words) (DPAGT1 [1])	Tm,1/2 of DPAGT1 bound to ligand (DPAGT1 [2])
CCCCCCCC(=O)N[C@H]1[C@H](O[C@H]2O[C@H](CO)[C@@H](O)[C@H](O)[C@H]2NC(=O)CCCCCCC)O[C@H](C[C@@H](O)[C@H]2O[C@@H](n3ccc(=O)[nH]c3=O)[C@H](O)[C@@H]2O)[C@H](O)[C@@H]1O [Tun-8E,8G]	only Tun itself leads to an increase in ATF4	expression of intact glycosylated protein	90.0%	little to no significant inhibition	–
CCCCCCCCC(=O)N[C@H]1[C@H](O[C@H]2O[C@H](CO)[C@@H](O)[C@H](O)[C@H]2NC(=O)CCC)O[C@H](C[C@@H](O)[C@H]2O[C@@H](n3ccc(=O)[nH]c3=O)[C@H](O)[C@@H]2O)[C@H](O)[C@@H]1O [Tun-9E,4G]	–	–	83.6%	did not cause a significant reduction in DPAGT1 activity	–
CCCCCCCCC(=O)N[C@H]1[C@@H](O[C@@H]2O[C@H](C[C@@H](O)[C@H]3O[C@@H](n4ccc(=O)[nH]c4=O)[C@H](O)[C@@H]3O)[C@H](O)[C@H](O)[C@H]2NC(=O)CC(C)C)O[C@H](CO)[C@@H](O)[C@@H]1O [Tun-i5E,9G]	–	–	90.7%	little to no significant inhibition	–
dolichol-1-phosphate [Dol-1-P]	–	–	–	–	58.5 ± 0.3 °C
